This is an account of results in US9187459B2, “Quinazoline-7-ether compounds and methods of use” (NewGen Therapeutics, Inc., priority 2011, dated 2015).

In experiment [1] the test system is Human breast cancer BT474 cells. The experiment is described as follows: Cell proliferation inhibition assay for BT474 (CCK-8). It is filed as cell-based. The note with it: BT-474, 72 h, text calls it EC50. As to the method: 1) Human breast cancer BT474 cells were plated 10000 cells/well in a 96-well clear tissue culture plate. The cells were incubated for 24 h at 37° C. to allow adherence.
2) A serials of concentrations of each compound (ranging from 30 uM to 0.16 nM, 5-fold dilution) in 96-well plate, and incubated for 72 h. Each concentration was tested in triplicate. During the cell proliferation assay, BT474 cells were cultured in the complete cell culture solution (low-glucose DMEM containing 5% FBS, 50 ug/ml gentamicin).
3) The culture medium was removed via aspiration, and the cell viability was detected by CCK-8 cell proliferation kit.
4) The EC50 was calculated based on the proliferation curve.

The next experiment has as its target ErbB2 (HER2) (Homo sapiens (Human), UniProt P04626). The experiment is described as follows: Kinase inhibition assay (TR-FRET, LanthaScreen), ErbB2 (HER2). It is filed as biochemical. The following applies: ATP 1 mM. On the procedure: 1) The compound is dissolved in DMSO to prepare a 10 mM solution, and was diluted to 100 micoM with water. […] Kinase activity was determined with time-resolved Fret (TR-FRET) assay (LanthaScreen® kinase activity assay, from InVitrogen).
2) The assay is performed in a Black 384-well plate (from Corning). The kinase and the compound was incubated for […] at room temperature. ATP (1 mM) and fluorescein-poly GT were added, and the reaction was incubated for […]. Detection agent SA-XL665 (from Cisbio Assay) and TK Ab-Cryptate detection antibody (from InVitrogen) were added to stop the reaction.
3) The 384-well plate was sealed and incubated for 1 hour. The fluorescence was then measured at […] (Cryptate) and 665 nM (XL655) wavelength.
4) Each concentration of compound was done in triplicate, and vehicle (without compound) and a positive control were used.
Data process: the ratio of fluorescence is calculated (value of fluorescence 665 nM over […]). The results are calculated from: signal=compound fluorescence ratio−vehicle ratio, and the IC50 was calculated based on inhibition curve.
(In general: TR-FRET usually uses a lanthanide donor and a delayed reading to cut background.)

Chain of ErbB2 (HER2) (P04626 23-1255): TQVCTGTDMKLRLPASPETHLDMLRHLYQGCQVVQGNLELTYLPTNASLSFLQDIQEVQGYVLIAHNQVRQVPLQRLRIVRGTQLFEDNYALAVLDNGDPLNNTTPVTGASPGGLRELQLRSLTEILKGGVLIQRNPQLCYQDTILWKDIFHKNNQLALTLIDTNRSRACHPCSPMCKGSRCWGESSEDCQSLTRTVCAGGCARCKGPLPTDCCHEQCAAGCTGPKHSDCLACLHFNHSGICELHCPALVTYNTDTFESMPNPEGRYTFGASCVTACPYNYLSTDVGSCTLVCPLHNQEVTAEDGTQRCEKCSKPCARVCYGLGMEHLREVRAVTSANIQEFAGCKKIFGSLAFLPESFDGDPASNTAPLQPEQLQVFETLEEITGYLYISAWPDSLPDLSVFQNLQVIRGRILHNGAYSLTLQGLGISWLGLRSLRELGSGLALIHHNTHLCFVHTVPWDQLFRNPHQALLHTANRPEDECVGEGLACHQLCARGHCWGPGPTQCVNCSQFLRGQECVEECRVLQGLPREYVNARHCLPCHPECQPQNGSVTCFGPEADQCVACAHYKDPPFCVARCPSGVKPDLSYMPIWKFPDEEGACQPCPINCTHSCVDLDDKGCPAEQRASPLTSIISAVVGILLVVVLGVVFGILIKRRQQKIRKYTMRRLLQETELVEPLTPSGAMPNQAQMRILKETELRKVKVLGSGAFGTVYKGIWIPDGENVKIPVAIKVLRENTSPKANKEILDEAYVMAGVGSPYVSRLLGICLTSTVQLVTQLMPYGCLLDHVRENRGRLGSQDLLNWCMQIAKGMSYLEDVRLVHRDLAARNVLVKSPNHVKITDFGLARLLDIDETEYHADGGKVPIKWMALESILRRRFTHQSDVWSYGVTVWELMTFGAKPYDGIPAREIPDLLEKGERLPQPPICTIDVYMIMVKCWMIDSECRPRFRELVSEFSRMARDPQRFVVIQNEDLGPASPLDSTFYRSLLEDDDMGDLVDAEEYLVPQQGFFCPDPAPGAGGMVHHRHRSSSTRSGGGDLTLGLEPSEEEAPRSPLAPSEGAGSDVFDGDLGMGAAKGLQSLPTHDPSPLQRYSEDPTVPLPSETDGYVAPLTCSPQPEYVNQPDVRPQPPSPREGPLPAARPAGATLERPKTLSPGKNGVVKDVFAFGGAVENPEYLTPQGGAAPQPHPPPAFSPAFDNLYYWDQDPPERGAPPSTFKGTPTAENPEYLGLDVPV

Consider `CN(C)C/C=C/C(=O)Nc1cc2c(Nc3ccc(F)c(Cl)c3)ncnc2cc1OCC12COCC1C2` (centres unmarked) [Example 5, (E)-N-(7-((3-oxa-bicyclo[3.1.0]hexan-1-yl)methoxy)-4-(3-chloro-4-fluorophenylamino)quinazolin-6-yl)-4-(dimethylamino)but-2-enamide], for which the IC50 came out at 157 nM in experiment [1] and 91 nM against ErbB2 (HER2).

The IC50 is the concentration needed to halve the response being measured. A lower IC50 goes with greater potency in that assay.
